Measured values published in PubChem BioAssay (NCI).
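Protocol summary: plate cells (96-well), add compound at 5 concentrations, incubate 48 h, interpolate endpoints linearly. Here, GI50 denotes the concentration required for 50% inhibition of growth. TGI: total growth inhibition.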

What was measured:
Assay in all cases: NCI-60 cell line screen, 48 h
T-47D breast = system: T-47D breast
MDA-N = system: MDA-N
786-0 renal = system: 786-0 renal
NCI-H522 lung = system: NCI-H522 lung
SK-MEL-28 melanoma = system: SK-MEL-28 melanoma
DU-145 prostate = system: DU-145 prostate
HS 578T breast = system: HS 578T breast
PC-3 prostate = system: PC-3 prostate
BT-549 breast = system: BT-549 breast
MDA-MB-435 = system: MDA-MB-435
OVCAR-4 ovarian = system: OVCAR-4 ovarian
CAKI-1 renal = system: CAKI-1 renal
DLD-1 colon = system: DLD-1 colon
KM20L2 colon = system: KM20L2 colon
SNB-78 CNS = system: SNB-78 CNS
DMS 273 small cell lung = system: DMS 273 small cell lung
DMS 114 small cell lung = system: DMS 114 small cell lung
HOP-18 NSCLC = system: HOP-18 NSCLC
LXFL 529 NSCLC = system: LXFL 529 NSCLC

For C[C@]12CC[C@@H]3c4ccc(O)cc4CC[C@H]3[C@@H]1CC[C@@H]2OC(=O)CCc1ccccc1, the TGI (T-47D breast) was 37 µM, the TGI (MDA-N) was 52.9 µM and the TGI (786-0 renal) was > 100 µM. It also gave a TGI (NCI-H522 lung) of 32.9 µM, a TGI (SK-MEL-28 melanoma) of 39.2 µM and a TGI (DU-145 prostate) of 43 µM. For the same compound, the TGI (HS 578T breast) was 17.9 µM, the TGI (PC-3 prostate) was 34.4 µM and the TGI (BT-549 breast) was 34.2 µM. It also gave a TGI (MDA-MB-435) of 45.1 µM, a TGI (OVCAR-4 ovarian) of 39.1 µM and a TGI (CAKI-1 renal) of 37.7 µM.
In the case of COc1cc(C(=O)CC2OC(=O)C(Cl)=C2Cl)ccc1Cl (configuration not stated), the TGI (DLD-1 colon) is reported as > 100 µM, the TGI (KM20L2 colon) is reported as > 100 µM and the TGI (SNB-78 CNS) is reported as > 100 µM. The TGI (NCI-H522 lung) was > 100 µM, the TGI (SK-MEL-28 melanoma) was > 100 µM and the TGI (DMS 273 small cell lung) was > 100 µM. The TGI (DMS 114 small cell lung) was > 100 µM, the TGI (HOP-18 NSCLC) was > 100 µM and the TGI (LXFL 529 NSCLC) was > 100 µM. The TGI (OVCAR-4 ovarian) was > 100 µM and the TGI (CAKI-1 renal) was > 100 µM.
CO/N=C\c1cc(O)c(O)c(/C=N/OC)c1 was tested, and the TGI (T-47D breast) was > 100 µM, the TGI (MDA-N) was > 100 µM and the TGI (NCI-H522 lung) was > 100 µM. For the same compound, the TGI (SK-MEL-28 melanoma) was > 100 µM, the TGI (DU-145 prostate) was > 100 µM and the TGI (HS 578T breast) was 71.1 µM. The TGI (PC-3 prostate) was > 100 µM, the TGI (BT-549 breast) was > 100 µM and the TGI (MDA-MB-435) was > 100 µM. For the same compound, the TGI (OVCAR-4 ovarian) was > 100 µM and the TGI (CAKI-1 renal) was > 100 µM.
In the case of O=C1c2ccccc2C(=O)c2c(Nc3cc4c5c(ccc6c7ccc8c9c(cc(Nc%10cccc%11c%10C(=O)c%10ccccc%10C%11=O)c(c3c56)c97)-c3ccccc3C8=O)C(=O)c3ccccc3-4)cccc21, the TGI (T-47D breast) is reported as > 100 µM, the TGI (MDA-N) is reported as > 100 µM and the TGI (786-0 renal) is reported as > 100 µM. For the same compound, the TGI (NCI-H522 lung) was > 100 µM, the TGI (SK-MEL-28 melanoma) was > 100 µM and the TGI (DU-145 prostate) was > 100 µM. For the same compound, the TGI (HS 578T breast) was 61.1 µM, the TGI (PC-3 prostate) was > 100 µM and the TGI (BT-549 breast) was > 100 µM. The TGI (MDA-MB-435) was > 100 µM, the TGI (OVCAR-4 ovarian) was > 100 µM and the TGI (CAKI-1 renal) was > 100 µM.
For O=C(c1ccccc1)C1C(c2ccccc2)N1S(=O)(=O)c1ccccc1 (configuration not stated), the TGI (T-47D breast) was > 100 µM, the TGI (MDA-N) was > 100 µM and the TGI (NCI-H522 lung) was > 100 µM. The TGI (SK-MEL-28 melanoma) was > 100 µM, the TGI (DU-145 prostate) was > 100 µM and the TGI (HS 578T breast) was > 100 µM. For the same compound, the TGI (PC-3 prostate) was > 100 µM, the TGI (BT-549 breast) was > 100 µM and the TGI (MDA-MB-435) was > 100 µM. For the same compound, the TGI (OVCAR-4 ovarian) was > 100 µM and the TGI (CAKI-1 renal) was > 100 µM.
For O=C1C=CC(=O)c2c(O)c(Br)c(Br)c(O)c21, the TGI (T-47D breast) was 6.04 µM, the TGI (MDA-N) was 5.67 µM and the TGI (786-0 renal) was 3.32 µM. It also gave a TGI (SK-MEL-28 melanoma) of 4.91 µM, a TGI (DU-145 prostate) of 25.9 µM and a TGI (HS 578T breast) of 69.1 µM. The TGI (PC-3 prostate) was 29.6 µM, the TGI (BT-549 breast) was 27.1 µM and the TGI (MDA-MB-435) was 8.19 µM. It also gave a TGI (OVCAR-4 ovarian) of 9.08 µM.
Compound Cc1ccc(C2COc3cc(O)c(O)cc3C2)cc1 (configuration not stated) has a TGI (DLD-1 colon) of 105 µM, a TGI (KM20L2 colon) of 164 µM and a TGI (SNB-78 CNS) of 221 µM. It also gave a TGI (SK-MEL-28 melanoma) of 32.8 µM, a TGI (DMS 273 small cell lung) of 78.1 µM and a TGI (DMS 114 small cell lung) of 37 µM. The TGI (HOP-18 NSCLC) was 98.2 µM, the TGI (OVCAR-4 ovarian) was 62 µM and the TGI (CAKI-1 renal) was 38.1 µM.
For N#C/C(=C\c1ccc(Br)cc1)n1nnc2cc(Cl)c(Cl)cc21, the GI50 (SK-MEL-28 melanoma) was 1.84 µM and the TGI (SK-MEL-28 melanoma) was 3.81 µM.
OCc1cc2ccncc2c2c1[nH]c1ccccc12 was tested, and the TGI (DLD-1 colon) was > 100 µM, the TGI (SNB-78 CNS) was 63.1 µM and the TGI (SK-MEL-28 melanoma) was > 100 µM. It also gave a TGI (DMS 273 small cell lung) of 16.5 µM, a TGI (DMS 114 small cell lung) of 23.1 µM and a TGI (HOP-18 NSCLC) of 27.4 µM. For the same compound, the TGI (LXFL 529 NSCLC) was 22 µM, the TGI (OVCAR-4 ovarian) was 26.8 µM and the TGI (CAKI-1 renal) was 17.9 µM.
